Laboratory results from patent US20220106296A1, “CYANOTRIAZOLE COMPOUNDS AND USES THEREOF” (Novartis AG, priority 2018, published 2022).

Key:
Type in all cases: cell-based
[1] = test system: T. b. brucei Lister427 bloodstream form parasites; assay: T. b. brucei growth inhibition assay (CellTiter-Glo, 48 hours); settings: Trypanosoma brucei
Description: Bloodstream form of T. b. brucei Lister427 strain was obtained from the Genomics Institute of the Novartis Research Foundation. This strain was used for carrying out growth inhibition and kill kinetics assays. T. b. gambiense STIB930 and T. b. rhodesiense STIB900 were obtained from Swiss TPH, were used for carrying out the growth inhibition assays.
Bloodstream form T. b. brucei Lister 427 parasites were continuously passaged in HMI-9 medium formulated from IMDM medium (Invitrogen), 10% heat-inactivated fetal bovine serum (FBS), 10% Serum Plus medium supplement (SAFC Biosciences), 1 mM hypoxanthine (Sigma-Aldrich), 50 μM bathocuproine disulfonic acid (Sigma-Aldrich), 1.5 mM cysteine (Sigma-Aldrich), 1 mM pyruvic acid (Sigma-Aldrich), 39 μg/mL thymidine (Sigma-Aldrich), and 14 μL/L beta-mercapthoethanol (Sigma-Aldrich); all concentrations of added components refer to that in complete HMI-9 medium. The parasites were cultured in 10 mL of HMI-9 medium in T75 CELL-STAR tissue culture flasks at 37° C./5% CO2.
(§1) To determine compound growth inhibitory potency on T. b. brucei Lister427 bloodstream form parasites, 200 nL of 10-point, 3 fold serially diluted compounds in DMSO were transferred to the wells of white, solid bottom 384-well plates (Greiner Bio-One) by either Echo 555 acoustic liquid handling system or Mosquito. Then, 1×10^4 of T. b. brucei parasites in 40 μL of HMI-9 medium were added to each well, and the plates were incubated for 48 hours at 37° C. in 5% CO2 incubators. Parasite numbers in individual plate wells were determined through quantification of intracellular ATP amount. The CellTiter-Glo luminescent cell viability reagent (Promega) was added to plate wells, and ATP-dependent luminescence signal was measured on Tecan M1000 plate Reader after 30 min incubation. Luminescence values in wells with compounds were divided by the average luminescence value of the plate DMSO controls, and used for calculation of compound IC50 values.

[2] = test system: intracellular T. cruzi amastigotes; assay: T. cruzi amastigote growth inhibition assay (NIH 3T3 host cells, β-galactosidase readout); settings: Trypanosoma cruzi, NIH3T3, read-out: (c) T.c.* IC50
Description: NIH 3T3 fibroblast cells (ATCC) were maintained in RPMI-1640 medium (Life Technologies) supplemented with 10% heat-inactivated fetal bovine serum and 100 IU penicillin/100 μg/ml streptomycin at 37° C./5% CO2. T. cruzi Tulahuen parasites constitutively expressing E. coli β-galactosidase were maintained in tissue culture as an infection in NIH 3T3 fibroblast cells. Briefly, 2×10^7 T. cruzi trypomastigotes were used to infect 6×10^5 NIH 3T3 cells growing in T75 CELLSTAR tissue culture flasks and cultured at 37° C./5% CO2 until proliferating intracellular parasites lysed host 3T3 cells and were released into the culture medium (typically 6-7 days). During the infection, the tissue culture medium was changed every two days. Number of T. cruzi trypomastigotes present in 1 ml of medium was determined using a haemocytometer.
To determine compound potency on intracellular T. cruzi amastigotes, NIH 3T3 cells were re-suspended in phenol red-free RPMI-1640 medium containing 3% heat-inactivated fetal bovine serum and 100 IU penicillin/100 μg/ml streptomycin, seeded at 1,000 cells/well (40 μl) in white, clear bottom 384-well plates (Greiner Bio-One), and incubated overnight at 37° C./5% CO2. The following day, 100 nl of each compound in DMSO were transferred to individual plate wells by Echo 555 acoustic liquid handling system. After one hour incubation, 1×10^6 of tissue culture-derived T. cruzi trypomastigotes, in 10 μl of phenol red-free RPMI-1640 medium supplemented with 3% heat-inactivated fetal bovine serum and 100 IU penicillin/100 μg/ml streptomycin were added to each well. Plates were then incubated for 6 days at 37° C./5% CO2. Intracellular T. cruzi parasites were quantified by measuring the activity of parasite-expressed β-galactosidase. Ten microliters of a chromogenic β-galactosidase substrate solution (0.6 mM chlorophenol red-β-D-galactopyranoside/0.6% NP-40 in PBS; both reagents from Calbiochem) were added to each well and incubated for 2 h at room temperature. After incubation, absorption was measured at 570 nm on SpectraMax M2 plate reader (Molecular Devices). Measured absorbance values in wells with compounds were divided by the average absorbance value of the plate DMSO controls, and used for calculation of compound EC50 values as described above.

T.b. gambinese STIB930 = assay: T.b. gambiense growth inhibition assay; settings: Trypanosoma brucei, read-out: (b) T.b.g* IC50
Description: as §1, with “Bloodstream form of T. b. brucei Lister427 strain was obtained from the Genomics Institute of the Novartis Research Foundation. This strain was used for carrying out growth inhibition and kill kinetics assays. T. b. gambiense STIB930 and T. b. rhodesiense STIB900 were obtained from Swiss TPH, were used for carrying out the growth inhibition assays. Bloodstream form of T. b. gambiense and T. b. rhodesiense were also grown in HMI-9 media, described above, but the media was supplemented by 5% human serum and 5% heat-inactivated FBS instead of 10% FBS. To” for “To”, “values. Similar assay was also used for determining IC50 against T.b. gambinese STIB930 and T. b. rhodesiense STIB900 strains, but the initial concentration of cells used was 3×10^4 parasites/ml.” for “values.”

[3] = test system: Leishmania donovani axenic amastigote; assay: Growth inhibition of Leishmania donovani axenic amastigote; settings: L. donovani growth inhibition, read-out: (d) L.d* IC50
Description: Leishmania donovani axenic amastigote parasites are grown at 37° C., 5% CO2 in media made of RPMI 1640, 4 mM L-glutamine, 20% heat inactivated FBS, 100 units/ml of penicillin and 100 μg/ml of streptomycin, 23 μM Folic Acid, 100 μM Adenosine, 22 mM D-glucose, 25 mM MES. The pH of media is adjusted to 5.5 at 37° C. using HCl. 20 μL of media is first dispensed into 384 well plates and 100 nL of the compounds of invention in DMSO are added to the plate wells. At the same time control compounds and DMSO are added to plates to serve as the positive and negative controls, respectively. 40 μL of parasite culture (9600 parasites) are then added to the plate wells. The plates are then placed into incubators. After 2 day incubation, 20 μL of Cell TiterGlo (Promega) is added to the plate wells. The luminescence signal of each well is measured using the Envision reader (Perkin Elmer). The percentage inhibition of 50%, EC50, is calculated for each of the compounds.

| SMILES | IC50 [1] [nM] | IC50 [2] [nM] | IC50 (T.b. gambinese STIB930) [nM] | IC50 [3] [nM] |
| --- | --- | --- | --- | --- |
| N#Cc1ncn(CC(=O)N2Cc3ccc(-c4ccc(F)nc4C(F)(F)F)cc3C2)n1 [Example 26, 1-(2-(5-(6-fluoro-2-(trifluoromethyl)pyridin-3-yl)isoindolin-2-yl)-2-oxoethyl)-1H-1,2,4-triazole-3-carbonitrile] | 100 to 1000 | < 100 |  |  |
| N#Cc1ncn(CC(=O)N2Cc3ccc(-c4ccncc4C(F)(F)F)cc3C2)n1 [Example 27, 1-(2-oxo-2-(5-(3-(trifluoromethyl)pyridin-4-yl)isoindolin-2-yl)ethyl)-1H-1,2,4-triazole-3-carbonitrile] | < 100 | < 100 | < 100 |  |
| N#Cc1ncn(CC(=O)N2Cc3ccc(-c4ccc(F)cc4C#N)cc3C2)n1 [Example 32, 1-(2-(5-(2-cyano-4-fluorophenyl)isoindolin-2-yl)-2-oxoethyl)-1H-1,2,4-triazole-3-carbonitrile] | 100 to 1000 | < 100 |  | ≥ 1000 |
| N#Cc1ncn(CC(=O)N2Cc3ccc(-c4c(Cl)cccc4Cl)cc3C2)n1 [Example 35, 1-(2-(5-(2,6-dichlorophenyl)isoindolin-2-yl)-2-oxoethyl)-1H-1,2,4-triazole-3-carbonitrile] | 100 to 1000 | < 100 |  | ≥ 1000 |
| N#Cc1ncn(CC(=O)N2Cc3ccc(-c4ccccc4C(F)(F)F)cc3C2)n1 [Example 36, 1-(2-oxo-2-(5-(2-(trifluoromethyl)phenyl)isoindolin-2-yl)ethyl)-1H-1,2,4-triazole-3-carbonitrile] | 100 to 1000 | < 100 |  | ≥ 1000 |
| COCCOc1cc(F)ccc1-c1ccc2c(c1)CN(C(=O)Cn1cnc(C#N)n1)C2 [Example 39, 1-(2-(5-(4-fluoro-2-(2-methoxyethoxy)phenyl)isoindolin-2-yl)-2-oxoethyl)-1H-1,2,4-triazole-3-carbonitrile] | 100 to 1000 | ≥ 1000 |  |  |
| N#Cc1ncn(CC(=O)N2Cc3ccc(-c4ccccc4OC(F)(F)F)cc3C2)n1 [Example 40, 1-(2-oxo-2-(5-(2-(trifluoromethoxy)phenyl)isoindolin-2-yl)ethyl)-1H-1,2,4-triazole-3-carbonitrile] | 100 to 1000 | 100 to 1000 |  |  |
| N#Cc1ncn(CC(=O)N2Cc3ccc(-c4ccc(C(F)(F)F)cc4Cl)cc3C2)n1 [Example 42, 1-(2-(5-(2-chloro-4-(trifluoromethyl)phenyl)isoindolin-2-yl)-2-oxoethyl)-1H-1,2,4-triazole-3-carbonitrile] | 100 to 1000 | ≥ 1000 |  |  |
| N#Cc1ncn(CC(=O)N2Cc3ccc(-c4ccccc4C#N)cc3C2)n1 [Example 43, 1-(2-(5-(2-cyanophenyl)isoindolin-2-yl)-2-oxoethyl)-1H-1,2,4-triazole-3-carbonitrile] | 100 to 1000 | < 100 |  | ≥ 1000 |
| N#Cc1ncn(CC(=O)N2Cc3ccc(-c4cccc(C#N)c4F)cc3C2)n1 [Example 44, 1-(2-(5-(3-cyano-2-fluorophenyl)isoindolin-2-yl)-2-oxoethyl)-1H-1,2,4-triazole-3-carbonitrile] | 100 to 1000 | 100 to 1000 |  |  |
| N#Cc1ccc(-c2ccc3c(c2)CN(C(=O)Cn2cnc(C#N)n2)C3)cc1 [Example 46, 1-(2-(5-(4-cyanophenyl)isoindolin-2-yl)-2-oxoethyl)-1H-1,2,4-triazole-3-carbonitrile] | 100 to 1000 | 100 to 1000 |  | ≥ 1000 |
| Cn1nc(C(F)(F)F)cc1-c1ccc2c(c1)CN(C(=O)Cn1cnc(C#N)n1)C2 [Example 48, 1-(2-(5-(1-methyl-3-(trifluoromethyl)-1H-pyrazol-5-yl)isoindolin-2-yl)-2-oxoethyl)-1H-1,2,4-triazole-3-carbonitrile] | 100 to 1000 | 100 to 1000 |  |  |
| CC(=O)c1ccccc1-c1ccc2c(c1)CN(C(=O)Cn1cnc(C#N)n1)C2 [Example 50, 1-(2-(5-(2-acetylphenyl)isoindolin-2-yl)-2-oxoethyl)-1H-1,2,4-triazole-3-carbonitrile] | 100 to 1000 | 100 to 1000 |  |  |
| COc1cc(F)ccc1-c1ccc2c(c1)CN(C(=O)Cn1cnc(C#N)n1)C2 [Example 51, 1-(2-(5-(4-fluoro-2-methoxyphenyl)isoindolin-2-yl)-2-oxoethyl)-1H-1,2,4-triazole-3-carbonitrile] | 100 to 1000 | 100 to 1000 |  |  |
| COc1ccc(Cl)cc1-c1ccc2c(c1)CN(C(=O)Cn1cnc(C#N)n1)C2 [Example 52, 1-(2-(5-(5-chloro-2-methoxyphenyl)isoindolin-2-yl)-2-oxoethyl)-1H-1,2,4-triazole-3-carbonitrile] | 100 to 1000 | 100 to 1000 |  |  |
| N#Cc1ncn(CC(=O)N2Cc3ccc(-c4cccc(F)c4C(F)(F)F)cc3C2)n1 [Example 84, 1-(2-(5-(3-fluoro-2-(trifluoromethyl)phenyl)isoindolin-2-yl)-2-oxoethyl)-1H-1,2,4-triazole-3-carbonitrile] | 100 to 1000 | < 100 |  |  |
| N#Cc1ncn(CC(=O)N2Cc3ccc(-c4cnccc4C(F)(F)F)cc3C2)n1 [Example 86, 1-(2-oxo-2-(5-(4-(trifluoromethyl)pyridin-3-yl)isoindolin-2-yl)ethyl)-1H-1,2,4-triazole-3-carbonitrile] | 100 to 1000 | 100 to 1000 |  |  |
